Measurements from ChEMBL document CHEMBL1201862, “PubChem BioAssay data set” (2004).
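Values below derive from 48-hour exposures of cells grown in 96-well plates, with endpoints linearly interpolated between the two concentrations bracketing the appropriate inhibition level. GI50 is the concentration that inhibits growth by half.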 Calls of active or inactive are those of the source. Cut-off read from the data, not from the text of the source: active = GI50 up to about 1.1 µM and inactive = higher.

What was measured:
Test in all cases: NCI-60 cell line screen, 48 h
NCI-H460 = tested on: NCI-H460
OVCAR-8 = tested on: OVCAR-8
SF-295 = tested on: SF-295
IGROV-1 = tested on: IGROV-1
M14 = tested on: M14
OVCAR-4 = tested on: OVCAR-4
A498 = tested on: A498
A549 = tested on: A549
ACHN = tested on: ACHN
HOP-92 = tested on: HOP-92
SN12C = tested on: SN12C
SK-MEL-28 = tested on: SK-MEL-28
SR = tested on: SR
RXF 393 = tested on: RXF 393
K562 = tested on: K562

Measured: GI50

CC(C)C(Sc1nc(-c2ccccc2)c(-c2ccccc2)[nH]1)c1n[nH]c(=S)n1-c1ccccc1 (stereo not drawn)
inactive: NCI-H460 32.3 µM | OVCAR-8 34.5 µM | SF-295 22.3 µM | IGROV-1 26.4 µM | M14 19.2 µM | OVCAR-4 35.5 µM | A498 43.3 µM | A549 33.7 µM | ACHN 29.6 µM | HOP-92 22.5 µM | SN12C 37.2 µM | SK-MEL-28 29.9 µM | SR 32.2 µM

C=CC[P@@]1(=O)O[C@H](c2ccccc2)C(C)N1C(C)C (stereo partly drawn)
inactive: RXF 393 > 100 µM | K562 > 100 µM | NCI-H460 > 100 µM | OVCAR-8 > 100 µM | SF-295 > 100 µM | IGROV-1 > 100 µM | M14 > 100 µM | OVCAR-4 > 100 µM | A498 > 100 µM | A549 > 100 µM | ACHN > 100 µM | SN12C > 100 µM | SK-MEL-28 > 100 µM | SR > 100 µM

COc1ccc(N2C(=O)C3c4[nH]c5ccccc5c4C4CCCCCCCCCCC4C3C2=O)cc1 (stereo not drawn)
inactive: K562 19 µM | NCI-H460 4.92 µM | OVCAR-8 3.39 µM | SF-295 10.7 µM | IGROV-1 > 28.2 µM | M14 7.8 µM | OVCAR-4 26.2 µM | A498 9.4 µM | A549 4.84 µM | ACHN 29.4 µM | HOP-92 19 µM | SN12C 4.89 µM | SK-MEL-28 11.9 µM | SR 10.8 µM

CC(C)=CC(=O)c1c(C(=O)O)nc2ccccc2[n+]1[O-]
inactive: RXF 393 > 100 µM | K562 > 100 µM | NCI-H460 > 100 µM | SF-295 > 100 µM | IGROV-1 > 100 µM | M14 > 100 µM | OVCAR-4 > 100 µM | A498 > 100 µM | A549 > 100 µM | ACHN > 100 µM | HOP-92 > 100 µM | SN12C > 100 µM | SK-MEL-28 > 100 µM | SR > 100 µM

CCOC(=O)c1[nH]c(COC(C)=O)c2c1CCCCCCCCCC2
inactive: RXF 393 > 100 µM | K562 > 100 µM | NCI-H460 > 100 µM | OVCAR-8 > 100 µM | SF-295 > 100 µM | IGROV-1 > 100 µM | M14 > 100 µM | OVCAR-4 > 100 µM | A498 > 100 µM | A549 > 100 µM | HOP-92 > 100 µM | SN12C > 100 µM | SR > 100 µM
